From patent US20110105397A1, “METHOD FOR TREATING HEART FAILURE WITH STRESSCOPIN-LIKE PEPTIDES” (priority 2009, published 2011)
Several values for one entry are separate records, joined by “and”; a condition that tells them apart may be missing. Equal entries are not always repeated. Where two headings read alike, the source gives them in different places.

Columns and labels:
CRHR1 = target: T1, CRHR1 (Homo sapiens, UniProt P34998); assay: cAMP assay, h-CRHR1 transfected SK-N-MC cells; type: cell-based; design: expressed in transfected cells; conditions: Table 11; for EC50: h-CRHR1 transfected SK-N-MC cells, 1 hr at 37° Celsius, read-out: pA50 (Experimental) (converted)
T1 sequence (P34998 24-415): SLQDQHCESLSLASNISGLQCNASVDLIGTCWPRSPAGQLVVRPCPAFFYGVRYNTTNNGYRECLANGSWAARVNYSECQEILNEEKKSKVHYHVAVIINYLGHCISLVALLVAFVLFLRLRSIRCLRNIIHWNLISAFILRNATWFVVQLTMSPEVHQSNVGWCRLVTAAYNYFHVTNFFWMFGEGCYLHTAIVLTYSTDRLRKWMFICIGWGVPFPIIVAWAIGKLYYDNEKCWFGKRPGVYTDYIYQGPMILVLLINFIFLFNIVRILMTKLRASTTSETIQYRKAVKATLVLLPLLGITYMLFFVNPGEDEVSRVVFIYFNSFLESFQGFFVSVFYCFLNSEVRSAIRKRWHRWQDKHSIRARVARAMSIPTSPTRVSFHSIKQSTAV
Experimental: Human CRHR1 (accession number X72304) or CRHR2 (accession number U34587) were cloned into pcDNA3.1/Zeo expression vector and stably transfected into SK—N-MC cells by electroporation. Cells were maintained in MEM w/Earl's Salt with 10% FBS, 50 I.U. penicillin, 50 μg/ml streptomycin, 2 mM L-glutamine, 1 mM sodium pyruvate and 0.1 mM non-essential amino acids, 600 μg/ml G418. Cells were grown at 37° C. in 5% CO2
Cells were plated in 96-well tissue culture dishes (Biocoat from BD Biosciences) overnight at 50,000 cell/well. Cells were washed with PBS then resuspended in DMEM F-12 without phenol red, containing 10 μM isobutylmethylxanthine (IBMX). Cells were incubated with the peptides at concentrations ranging from 1 pM to 10 μM for 60 min at 37° Celsius. […] Forskolin (10 μM), a direct stimulant of adenylate cyclase, was used as positive control. The assays were stopped by the addition of 0.5 M HCl and mixing by orbital rotation for 2 h at 4° Celsius.
Transfected SK—N-MC cells were plated in 96-well Biocoat tissue culture dishes (BD Biosciences, San Jose, Calif., U.S.A) overnight at 50,000 cell/well. Cells were first washed with PBS and then suspended with DMEM/F-12 without phenol red, containing […]. Suspended cells were transferred into a 96-well flash plate coated with scintillant fluid. Cells were incubated with peptides ranging from 1 pM to 1 μM, for 60 min, at 37° Celsius. Forskolin at 10 μM was used as positive control. After ligand stimulation, cells were lysed by the addition of 0.5M HCl and mixed by orbital rotation for 2 h at 4° Celsius in order to release intracellular cAMP into the media.
Media containing released intracellular cAMP was transferred to a 96-well flash plate coated with scintillant fluid containing an anti-cAMP antibody. […] To generate a standard curve, cAMP ranging from 2.5 to 250 pmoles/ml was included in the experiment.
Individual agonist concentration-response curve data were fitted to the Hill equation, see formula below, using GraphPad Prism (Graphpad Software, La Jolla, Calif., U.S.A.), to provide estimates of agonist concentration needed to generate one-half maximal response (A50), and the maximal asymptote (α) and Hill slope (nH) parameters. In this equation, [A] is the agonist concentration and E is the measured effect:
For display purposes the mean fitted parameter estimates were used to generate a single E/[A] curve shown superimposed on the mean experimental data. Potency estimates for agonists, pA50, are expressed as the negative logarithm of the midpoint of each curve and listed with their standard error of measurement (SEM).
Human and rat peptides (see Table 10) were used on the stimulation of h-CRHR1 or h-CRHR2 transfected SK—N-MC cells in the cAMP flash plate assay. Peptides were incubated for 1 hr at 37° Celsius. Curves were calculated using non-linear regression sigmoidal concentration-response analysis calculation in GraphPad Prism.

human CRHR2 = target: T2, human CRHR2 (Homo sapiens, UniProt Q13324); assay: cAMP assay, h-CRHR2 transfected SK-N-MC cells; type: cell-based; conditions: for nH (Hill slope) / αmax (maximal asymptote): h-CRHR2; for αmax (maximal asymptote): in %
T2 construct: expressed in transfected cells
T2 sequence (Q13324 1-411): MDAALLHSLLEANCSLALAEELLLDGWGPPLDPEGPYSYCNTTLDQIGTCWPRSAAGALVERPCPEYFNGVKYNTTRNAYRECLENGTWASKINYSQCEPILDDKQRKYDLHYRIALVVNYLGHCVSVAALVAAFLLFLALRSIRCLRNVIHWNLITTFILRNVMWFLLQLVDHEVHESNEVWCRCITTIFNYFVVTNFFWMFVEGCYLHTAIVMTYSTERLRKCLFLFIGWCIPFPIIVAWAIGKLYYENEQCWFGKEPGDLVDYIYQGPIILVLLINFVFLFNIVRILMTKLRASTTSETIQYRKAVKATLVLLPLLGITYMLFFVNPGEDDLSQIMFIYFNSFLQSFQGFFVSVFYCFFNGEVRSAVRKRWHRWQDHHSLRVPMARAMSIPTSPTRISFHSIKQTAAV
Outline: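 Intracellular cAMP was quantified by radioligand competition against a cAMP standard curve after HCl lysis of h-CRHR2-transfected SK-N-MC cells. These cells had been exposed to peptides from 1 pM to 1 μM for 1 h at 37 °C with IBMX. Responses were scaled to the daily h-SCP maximum and fitted to the Hill equation to give A50/pA50.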

[1] = Table 11, h-CRHR2 transfected SK-N-MC cells, 1 hr at 37° Celsius, read-out: pA50 (Experimental) (converted)

nH (Hill slope) (CRHR1; h-CRHR1)	αmax (maximal asymptote) (CRHR1; h-CRHR1)	nH (Hill slope) (human CRHR2; Table 11)	αmax (maximal asymptote) (human CRHR2; Table 11)	EC50 (human CRHR2; [1])	nH (Hill slope) (CRHR1; h-CRHR1, listed as h-SRP)	nH (Hill slope) (human CRHR2; Table 11, listed as h-SRP)	αmax (maximal asymptote) (human CRHR2; Table 11, listed as h-SRP)	Molecule	EC50 (CRHR1)	nH (Hill slope) (human CRHR2; Table 11, listed as h-SCP)	αmax (maximal asymptote) (human CRHR2; Table 11, listed as h-SCP)	nH (human CRHR2; Table 12)	αmax (human CRHR2; Table 12, normalized to the maximum response to h-SCP)	EC50 (human CRHR2; Table 13, cysteine mutation, N-ethylmaleimide capping, pegylation, read-out: pA50 (converted)) [nM]	nH (human CRHR2; Table 14)	αmax (human CRHR2; Table 14, % of the maximum response obtained to h-SCP) [%]	EC50 (human CRHR2; Table 14, read-out: pA50 (converted)) [nM]
1.15	99.61	1.07	110.5	0.832 nM				CC[C@H](C)[C@H](NC(=O)[C@H](CO)NC(=O)[C@H](CC(C)C)NC(=O)[C@@H]1CCCN1C(=O)[C@@H]1CCCN1C(=O)[C@H](CC(=O)O)NC(=O)[C@@H](N)CC(=O)O)C(=O)N[C@@H](CC(=O)O)C(=O)N[C@@H](CC(C)C)C(=O)N[C@H](C(=O)N[C@@H](Cc1ccccc1)C(=O)N[C@@H](Cc1c[nH]cn1)C(=O)N[C@@H](CC(C)C)C(=O)N[C@@H](CC(C)C)C(=O)N[C@@H](CCCNC(=N)N)C(=O)N[C@H](C(=O)N[C@@H](CC(C)C)C(=O)N[C@@H](CC(C)C)C(=O)N[C@@H](CCC(=O)O)C(=O)N[C@@H](CC(C)C)C(=O)N[C@@H](C)C(=O)N[C@@H](CCCNC(=N)N)C(=O)N[C@H](C(=O)N[C@@H](CCC(N)=O)C(=O)N[C@@H](CO)C(=O)N[C@@H](CCC(N)=O)C(=O)N[C@@H](CCCNC(=N)N)C(=O)N[C@@H](CCC(=O)O)C(=O)N[C@@H](CCCNC(=N)N)C(=O)N[C@@H](C)C(=O)N[C@@H](CCC(=O)O)C(=O)N[C@@H](CCC(N)=O)C(=O)N[C@@H](CC(N)=O)C(=O)N[C@@H](CCCNC(=N)N)C(=O)N[C@H](C(=O)N[C@H](C(=O)N[C@@H](Cc1ccccc1)C(=O)N[C@@H](CC(=O)O)C(=O)N[C@@H](CO)C(=O)N[C@H](C(N)=O)C(C)C)[C@@H](C)CC)[C@@H](C)CC)[C@@H](C)O)[C@@H](C)O)[C@@H](C)O [SEQ ID NO: 114, DDPPLSIDLTFHLLRTLLELARTQSQRERAEQNRIIFDSV-NH2]									
				0.479 nM and 0.263 nM and 0.589 nM	1.61 and 1.33 and 1.26	1.08 and 1.06 and 0.99	113.5 and 108.7 and 98.56	H-HPGSRIVLSLDVPIGLLQILLEQARARAAREQATTNARILARV-NH2 [SEQ ID NO: 117, HPGSRIVLSLDVPIGLLQILLEQARARAAREQATTNARILARV-NH2, reference compound]	457 nM and 631 nM and 525 nM								

Molecule	nH (Hill slope) (CRHR1; h-CRHR1)	αmax (maximal asymptote) (CRHR1; h-CRHR1)	nH (Hill slope) (human CRHR2; Table 11)	αmax (maximal asymptote) (human CRHR2; Table 11)	EC50 (human CRHR2; [1])	nH (Hill slope) (CRHR1; h-CRHR1, listed as h-SRP)	nH (Hill slope) (human CRHR2; Table 11, listed as h-SRP)	αmax (maximal asymptote) (human CRHR2; Table 11, listed as h-SRP)	EC50 (CRHR1)	nH (Hill slope) (human CRHR2; Table 11, listed as h-SCP)	αmax (maximal asymptote) (human CRHR2; Table 11, listed as h-SCP)	nH (human CRHR2; Table 12)	αmax (human CRHR2; Table 12, normalized to the maximum response to h-SCP)	EC50 (human CRHR2; Table 13, cysteine mutation, N-ethylmaleimide capping, pegylation, read-out: pA50 (converted)) [nM]	nH (human CRHR2; Table 14)	αmax (human CRHR2; Table 14, % of the maximum response obtained to h-SCP) [%]	EC50 (human CRHR2; Table 14, read-out: pA50 (converted)) [nM]
H-TKFTLSLDVPTNIMNLLFNIAKAKNLRAQAAANAHLMAQI-NH2 [SEQ ID NO: 1, TKFTLSLDVPTNIMNLLFNIAKAKNLRAQAAANAHLMAQI-NH2]					0.389 nM and 0.708 nM and 0.437 nM and 0.407 nM				> 10000 nM	0.99 and 1.04 and 1.39 and 1.55	99.31 and 97.53 and 116.1 and 98.2	1.18	98.68	0.182 to 0.339	1.26	100.1	0.398
